Measurements as given in patent US20080188528A1, “Modulators of C3a receptor and methods of use thereof” (priority 2006, published 2008).
Structures can show the parent of a compound that is named as a salt. Values belong to the compound of their own block, whether it stands above or below them.

Target: T1, human C3a receptor (C3aR) (Homo sapiens, UniProt Q16581)
T1 construct: expressed in transfected cells
T1 sequence (Q16581 1-482): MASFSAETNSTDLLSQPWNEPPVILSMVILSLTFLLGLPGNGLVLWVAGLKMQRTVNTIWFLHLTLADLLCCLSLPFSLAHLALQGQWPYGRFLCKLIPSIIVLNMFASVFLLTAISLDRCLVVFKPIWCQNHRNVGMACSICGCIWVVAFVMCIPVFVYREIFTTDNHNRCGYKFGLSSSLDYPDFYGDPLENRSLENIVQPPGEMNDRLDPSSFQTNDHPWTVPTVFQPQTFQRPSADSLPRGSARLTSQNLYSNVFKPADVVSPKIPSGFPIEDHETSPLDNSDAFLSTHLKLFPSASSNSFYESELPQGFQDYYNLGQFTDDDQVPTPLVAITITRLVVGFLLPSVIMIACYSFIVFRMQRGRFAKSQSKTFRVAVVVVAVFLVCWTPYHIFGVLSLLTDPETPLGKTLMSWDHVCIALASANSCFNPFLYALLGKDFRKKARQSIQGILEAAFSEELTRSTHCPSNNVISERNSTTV
Test: Inhibition of human [125I]-C3a binding to human C3a receptor (SPA, membranes of HEK293 cells expressing recombinant C3aR)
Settings: 0.1 nM [125I]-C3a, 3 hours at room temperature
Procedure: Inhibition of human [^125I]-C3a binding to human C3a receptor
Binding of human [^125I]-C3a to human C3a receptor (C3aR) was done using cell membranes from HEK293 cells stably expressing recombinant C3aR, in a homogeneous scintillation proximity assay (SPA). The C3aR cell membranes were pre-coupled over-night at 4° C. to WGA-PVT SPA beads (Amersham) at a ratio of 10 μg cell membrane to 0.5 mg beads/assay. Assay was performed in 96-well microtiter Optiplates (Packard) by mixing coupled beads and 0.1 nM [^125I]-C3a (2200 Ci/mmol, Perkin Elmer Life Sciences), in a total volume of […] binding buffer (20 mM HEPES, pH 7.4, 125 mM NaCl, 5 mM KCl, 1 mM CaCl2, 1 mM MgCl2, 0.25% BSA, 0.2% CHAPS). Test compounds were diluted in DMSO and were tested for their inhibitory potential in the assay (final concentration≦1% DMSO). Incubation was done for 3 hours at room temperature followed by reading in a TopCount scintillation microplate reader. Non-specific binding was determined by adding 1 μM unlabeled C3a (Calbiochem) to the assay mixture. Calculation of the IC50 was done as above using a nonlinear least square fitting program, with Graphpad Prism.

Structure (SMILES): N=C(N)NCCC[C@H](NC(=O)c1cccn(-c2ccccc2)c1=O)C(=O)O [Compound 33, (2S)-5-carbamimidamido-2-{[(2-oxo-1-phenyl-1,2-dihydropyridin-3-yl)carbonyl]amino}pentanoic acid•TFA]
IC50 (Table 1): 500 to 20000 nM

Structure (SMILES): Cc1ccc(C(=O)N[C@@H](CCCNC(=N)N)C(=O)O)c(=O)n1Cc1ccccc1 [Compound 35, (2S)-2-{[(1-benzyl-6-methyl-2-oxo-1,2-dihydropyridin-3-yl)carbonyl]amino}-5-carbamimidamidopentanoic acid•TFA]
IC50 (Table 1): 50 to 500 nM

Structure (SMILES): N=C(N)NCCC[C@H](NC(=O)c1cccn(CC(=O)N(c2ccccc2)c2ccccc2)c1=O)C(=O)O [Compound 37, (2S)-5-carbamimidamido-2-[({1-[2-(diphenylamino)-2-oxoethyl]-2-oxo-1,2-dihydropyridin-3-yl}carbonyl)amino]pentanoic acid•TFA]
IC50 (Table 1): 50 to 500 nM

Structure (SMILES): N=C(N)NCCC[C@H](NC(=O)c1cccn(Cc2cccc(F)c2)c1=O)C(=O)O [Compound 39, (2S)-5-carbamimidamido-2-({[1-(3-fluorobenzyl)-2-oxo-1,2-dihydropyridin-3-yl]carbonyl}amino)pentanoic acid•TFA]
IC50 (Table 1): < 50 nM

Structure (SMILES): Cc1ccccc1C(c1ccccc1C)n1cccc(C(=O)N[C@@H](CCCNC(=N)N)C(=O)O)c1=O [Compound 42, (2S)-2-[({1-[bis(2-methylphenyl)methyl]-2-oxo-1,2-dihydropyridin-3-yl}carbonyl)amino]-5-carbamimidamidopentanoic acid•TFA]
IC50 (Table 2): < 50 nM

Structure (SMILES): N=C(N)NCCC[C@H](NC(=O)c1cccn(C(c2ccccc2F)c2ccccc2F)c1=O)C(=O)O [Compound 46, (2S)-2-[({1-[bis(2-fluorophenyl)methyl]-2-oxo-1,2-dihydropyridin-3-yl}carbonyl)amino]-5-carbamimidamidopentanoic acid•TFA]
IC50 (Table 2): < 50 nM

Structure (SMILES): Cc1cc(C)cc(C(c2cc(C)cc(C)c2)n2cccc(C(=O)N[C@@H](CCCNC(=N)N)C(=O)O)c2=O)c1 [Compound 47, (2S)-2-[({1-[bis(3,5-dimethylphenyl)methyl]-2-oxo-1,2-dihydropyridin-3-yl}carbonyl)amino]-5-carbamimidamidopentanoic acid•TFA]
IC50 (Table 2): < 50 nM

Structure (SMILES): N=C(N)NCCC[C@H](NC(=O)c1cccn(C(c2ccc(C(F)(F)F)cc2)c2ccc(C(F)(F)F)cc2)c1=O)C(=O)O [Compound 49, (2S)-2-{[(1-{bis[4-(trifluoromethyl)phenyl]methyl}-2-oxo-1,2-dihydropyridin-3-yl)carbonyl]amino}-5-carbamimidamidopentanoic acid•TFA]
IC50 (Table 2): 50 to 500 nM

Structure (SMILES): CC(c1ccccc1)n1cccc(C(=O)N[C@@H](CCCNC(=N)N)C(=O)O)c1=O (stereo partly drawn) [Compound 50, (2S)-5-carbamimidamido-2-({[2-oxo-1-(1-phenylethyl)-1,2-dihydropyridin-3-yl]carbonyl}amino)pentanoic acid•TFA]
IC50 (Table 2): < 50 nM

Structure (SMILES): N=C(N)NCCC[C@H](NC(=O)c1ccc(Cc2ccccc2)cc1)C(=O)O [Compound 51, (2S)-2-[(4-benzylbenzoyl)amino]-5-carbamimidamidopentanoic acid•TFA]
IC50 (Table 3): 50 to 500 nM

Structure (SMILES): N=C(N)NCCC[C@H](NC(=O)c1cccc(Cc2ccccc2)c1)C(=O)O [Compound 52, (2S)-2-[(3-benzylbenzoyl)amino]-5-carbamimidamidopentanoic acid•TFA]
IC50 (Table 3): 50 to 500 nM

Structure (SMILES): N=C(N)NCCC[C@H](NC(=O)c1ccc(=O)n(Cc2ccccc2)c1)C(=O)O [Compound 54, (2S)-2-{[(1-benzyl-6-oxo-1,6-dihydropyridin-3-yl)carbonyl]amino}-5-carbamimidamidopentanoic acid•TFA]
IC50 (Table 3): 50 to 500 nM

More lines, now with the values ahead:

IC50 (Table 1): < 50 nM
Structure (SMILES): CC(C)c1cccc(-c2ccccc2Cn2cccc(C(=O)N[C@@H](CCCNC(=N)N)C(=O)O)c2=O)c1 [Compound 29, (2S)-5-carbamimidamido-2-[({1-[(3′-isopropylbiphenyl-2-yl)methyl]-2-oxo-1,2-dihydropyridin-3-yl}carbonyl)amino]pentanoic acid•TFA]

IC50 (Table 1): 50 to 500 nM
Structure (SMILES): CC(C)c1ccc(-c2ccccc2Cn2cccc(C(=O)N[C@@H](CCCNC(=N)N)C(=O)O)c2=O)cc1 [Compound 30, (2S)-5-carbamimidamido-2-[({1-[(4′-isopropylbiphenyl-2-yl)methyl]-2-oxo-1,2-dihydropyridin-3-yl}carbonyl)amino]pentanoic acid•TFA]

IC50 (Table 1): < 50 nM
Structure (SMILES): N=C(N)NCCC[C@H](NC(=O)c1cccn(Cc2ccccc2-c2ccc(F)cc2)c1=O)C(=O)O [Compound 31, (2S)-5-carbamimidamido-2-[({1-[(4′-fluorobiphenyl-2-yl)methyl]-2-oxo-1,2-dihydropyridin-3-yl}carbonyl)amino]pentanoic acid•TFA]

IC50 (Table 1): 50 to 500 nM
Structure (SMILES): N=C(N)NCCC[C@H](NC(=O)c1cccn(-c2ccc3ccccc3c2)c1=O)C(=O)O [Compound 32, (2S)-5-carbamimidamido-2-({[1-(2-naphthyl)-2-oxo-1,2-dihydropyridin-3-yl]carbonyl}amino)pentanoic acid•TFA]

IC50 (Table 1): 500 to 20000 nM
Structure (SMILES): N=C(N)NCCC[C@H](NC(=O)c1cccn(-c2ccc(-c3ccccc3)cc2)c1=O)C(=O)O [Compound 34, (2S)-2-{[(1-biphenyl-4-yl-2-oxo-1,2-dihydropyridin-3-yl)carbonyl]amino}-5-carbamimidamidopentanoic acid•TFA]

IC50 (Table 1): 500 to 20000 nM
Structure (SMILES): N=C(N)NCCC[C@H](NC(=O)c1ccc(-c2ccccc2)n(Cc2ccccc2)c1=O)C(=O)O [Compound 36, (2S)-2-{[(1-benzyl-2-oxo-6-phenyl-1,2-dihydropyridin-3-yl)carbonyl]amino}-5-carbamimidamidopentanoic acid•TFA]

IC50 (Table 1): < 50 nM
Structure (SMILES): N=C(N)NCCC[C@H](NC(=O)c1cccn(Cc2cccc(Cl)c2)c1=O)C(=O)O [Compound 38, (2S)-5-carbamimidamido-2-({[1-(3-chlorobenzyl)-2-oxo-1,2-dihydropyridin-3-yl]carbonyl}amino)pentanoic acid•TFA]

IC50 (Table 2): < 50 nM
Structure (SMILES): N=C(N)NCCC[C@H](NC(=O)c1cccn(C(c2ccccc2)c2ccccc2)c1=O)C(=O)O [Compound 40, (2S)-5-carbamimidamido-2-({[1-(diphenylmethyl)-2-oxo-1,2-dihydropyridin-3-yl]carbonyl}amino)pentanoic acid•TFA]

IC50 (Table 2): < 50 nM
Structure (SMILES): N=C(N)NCCC[C@@H](NC(=O)c1cccn(C(c2ccccc2)c2ccccc2)c1=O)C(=O)O [Compound 41, (2R)-5-carbamimidamido-2-({[1-(diphenylmethyl)-2-oxo-1,2-dihydropyridin-3-yl]carbonyl}amino)pentanoic acid•TFA]

IC50 (Table 2): < 50 nM
Structure (SMILES): Cc1cccc(C(c2cccc(C)c2)n2cccc(C(=O)N[C@@H](CCCNC(=N)N)C(=O)O)c2=O)c1 [Compound 43, (2S)-2-[({1-[bis(3-methylphenyl)methyl]-2-oxo-1,2-dihydropyridin-3-yl}carbonyl)amino]-5-carbamimidamidopentanoic acid]

IC50 (Table 2): < 50 nM
Structure (SMILES): N=C(N)NCCC[C@H](NC(=O)c1cccn(C(c2ccc(F)cc2)c2ccc(F)cc2)c1=O)C(=O)O [Compound 44, (2S)-2-[({1-[bis(4-fluorophenyl)methyl]-2-oxo-1,2-dihydropyridin-3-yl}carbonyl)amino]-5-carbamimidamidopentanoic acid•TFA]

IC50 (Table 2): < 50 nM
Structure (SMILES): N=C(N)NCCC[C@H](NC(=O)c1cccn(C(c2cccc(F)c2)c2cccc(F)c2)c1=O)C(=O)O [Compound 45, (2S)-2-[({1-[bis(3-fluorophenyl)methyl]-2-oxo-1,2-dihydropyridin-3-yl}carbonyl)amino]-5-carbamimidamidopentanoic acid•TFA]

IC50 (Table 2): < 50 nM
Structure (SMILES): N=C(N)NCCC[C@H](NC(=O)c1cccn(C(c2cccc(C(F)(F)F)c2)c2cccc(C(F)(F)F)c2)c1=O)C(=O)O [Compound 48, (2S)-2-{[(1-{bis[3-(trifluoromethyl)phenyl]methyl}-2-oxo-1,2-dihydropyridin-3-yl)carbonyl]amino}-5-carbamimidamidopentanoic acid•TFA]

IC50 (Table 3): 50 to 500 nM
Structure (SMILES): N=C(N)NCCC[C@H](NC(=O)c1ccn(Cc2ccccc2)c(=O)c1)C(=O)O [Compound 53, (2S)-2-{[(1-benzyl-2-oxo-1,2-dihydropyridin-4-yl)carbonyl]amino}-5-carbamimidamidopentanoic acid•TFA]

IC50 (Table 3): 50 to 500 nM
Structure (SMILES): N=C(N)NCCC[C@H](NC(=O)c1cccc(=O)n1Cc1ccccc1)C(=O)O [Compound 55, (2S)-2-{[(1-benzyl-6-oxo-1,6-dihydropyridin-2-yl)carbonyl]amino}-5-carbamimidamidopentanoic acid•TFA]
